Laboratory results published in PubChem BioAssay (NCI).
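All cell lines were grown in 96-well plates and treated with compound for 48 hours. GI50 = concentration required for 50% inhibition of growth. TGI denotes the concentration required for complete inhibition of growth.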

Tests used:
Test in all cases: growth of human tumour cells (NCI), 48 h
CCRF-CEM leukemia = tested on: CCRF-CEM leukemia
HOP-92 NSCLC = tested on: HOP-92 NSCLC
M14 melanoma = tested on: M14 melanoma
NCI-H460 lung = tested on: NCI-H460 lung
OVCAR-3 ovarian = tested on: OVCAR-3 ovarian
OVCAR-8 ovarian = tested on: OVCAR-8 ovarian
SNB-75 CNS = tested on: SNB-75 CNS
U251 CNS = tested on: U251 CNS
UO-31 renal = tested on: UO-31 renal

SMILES	TGI (CCRF-CEM leukemia) [µM]	TGI (HOP-92 NSCLC) [µM]	TGI (M14 melanoma) [µM]	TGI (NCI-H460 lung) [µM]	TGI (OVCAR-3 ovarian) [µM]	TGI (OVCAR-8 ovarian) [µM]	TGI (SNB-75 CNS) [µM]	TGI (U251 CNS) [µM]	TGI (UO-31 renal) [µM]	GI50 (M14 melanoma) [µM]	GI50 (NCI-H460 lung) [µM]	GI50 (OVCAR-3 ovarian) [µM]	GI50 (OVCAR-8 ovarian) [µM]	GI50 (SNB-75 CNS) [µM]	GI50 (U251 CNS) [µM]	GI50 (UO-31 renal) [µM]	GI50 (CCRF-CEM leukemia) [µM]	GI50 (HOP-92 NSCLC) [µM]
Cn1c(=O)c2/c(n(C)c1=O)=N\C=c1\c(=O)n(C)c(=O)n(C)\c1=N\C=2	> 100	> 100	> 100	> 100	> 100	> 100	> 100	> 100	> 100	–	–	–	–	–	–	–	–	–
Brc1cc2c(cc1Br)CN(c1ccccc1)C2	> 100	> 100	> 100	> 100	> 100	> 100	> 100	> 100	> 100	–	–	–	–	–	–	–	–	–
C[C@]12CCC(=O)C=C1CC[C@@H]1C2CC[C@]2(C)c3nn(-c4ccccc4)nc3CC12 (stereo not given in full)	> 100	> 100	> 100	> 100	> 100	> 100	> 100	> 100	> 100	–	–	–	–	–	–	–	–	–
COc1cc(NC(=O)C2=C(N3CCOCC3)/C(=C/c3ccc(Cl)cc3)CC2)cc(OC)c1OC	–	–	> 100	> 100	> 100	> 100	33.9	59.7	> 100	> 100	> 100	24.9	19.5	6.24	16.8	20.8	–	–
CC(=O)N/C(=C\c1ccc(Cc2nc3c([nH]2)C(=O)c2ccccc2C3=O)cc1)c1nc2c([nH]1)C(=O)c1ccccc1C2=O	> 100	> 100	> 100	> 100	> 100	> 100	> 100	> 100	> 100	–	–	–	–	–	–	–	–	–
COC(=O)C(C)NC(=O)c1ccccc1I(OS(=O)(=O)C(F)(F)F)c1ccccc1 (stereo not given)	60.4	21.6	32.8	59.1	41.8	> 100	> 87.8	38.5	42.1	1.23	20.4	19	36.3	> 49	18.2	21.3	20.3	3.66
CCN(CC)CC(=N)N(CC)c1ccccc1	> 100	> 100	> 100	> 100	> 100	> 100	> 100	> 100	> 100	–	–	–	–	–	–	–	–	–
C=C1C(=O)O[C@H]2[C@H]1CC/C(COC(=O)NCc1ccc(Cn3c(=O)sn(-c4ccccc4)c3=O)cc1)=C\CC[C@@]1(C)O[C@@H]21	> 100	3.44	3.58	12.4	3.12	8.55	–	5.28	3.16	1.8	3.67	1.68	2.83	–	2.37	1.68	0.833	1.82
CC(=O)[O-].O=C([CH-]C(=O)c1ccccc1)c1ccccc1.O=C([CH-]C(=O)c1ccccc1)c1ccccc1.[Sm+3]	–	19.6	17.5	82.6	13.3	16.3	6.76	35.3	12.5	4.55	2.54	2.62	2.13	2.12	5.93	3.79	–	4.96
C=CC1=C(C)C2=NC1=CC1=NC(=C(CC)/C1=C\O)C=C1N=C3C(=C1C)C(=O)[C@H](C(=O)OC)C3=C1NC(=C2)[C@@H](C)[C@@H]1CCC(=O)O	> 100	> 100	> 100	> 100	–	> 100	> 100	> 100	> 100	–	–	–	–	–	–	–	–	–
CC(C)=CC(=O)Cc1nc2ccc([N+](=O)[O-])cc2[nH]c1=O	–	> 100	> 100	> 100	> 100	> 100	> 100	–	> 100	–	–	–	–	–	–	–	–	–
CCCCCn1c(C)cc(/C=C\c2ccc3cc(C)ccc3[n+]2C)c1C	0.601	0.487	1.38	0.839	0.911	–	0.975	1.52	0.502	0.253	0.113	0.0793	–	0.0791	0.0345	0.212	0.0354	0.109
COc1cc2c3c(n(C)c(=O)c2cc1OC)-c1cc2c(cc1/C3=C\CCNCCCN)OCO2	13.4	11.1	20.5	20.3	–	44.6	> 100	3.44	> 100	5.32	0.853	–	2.98	11.4	0.47	42.5	0.686	1.45
COc1ccccc1C(=O)N(C)c1ccc(Cl)c(C(=O)OC(C)C)c1	> 100	> 100	> 100	> 100	> 100	> 100	> 100	> 100	> 100	–	–	–	–	–	–	–	–	–
